The assay concerns the target T1, Human full-length CaMKIIδ (Homo sapiens, UniProt Q13557).
T1 construct: Human full-length CaMKIIδ (Cat #02-111) was obtained from Carna Biosciences; GST; purchased Carna Biosciences 02-111
The assay can be described thus: Human CaMKII enzyme inhibition assay (radiometric kinase assay). Type of assay: biochemical. The note with it: 3 μM compound; 500 nM ATP; 0.5 nM CaMKIIδ; read-out: CaMKIIδ inhibitory activity (%) at 3 μM. The method, then: In Vitro CaMKIIδ Inhibitory Activity was Evaluated by an Enzyme Assay.
Human CaMKII Enzyme Inhibition Assay
Kinase assay for CaMKIIs was performed using the radiometric assay. Human full-length CaMKIIδ (Cat #02-111) was obtained from Carna Biosciences (Kobe, Japan).
Enzyme reactions were performed in 25 mM HEPES, pH 7.5, with 5 mM magnesium chloride, 1 mM calcium chloride, 10 μg/mL Calmodulin, 2 mM DTT, 0.01% Tween20 and 500 nM ATP (0.2 μCi/well of [γ-33P] ATP) containing 0.5 nM CaMKIIδ and 0.1 μM autophosphorylation peptide (KKALRRQETVDAL)(Toray Research Center).
After incubating the enzyme, peptide, and compounds for 5 min, kinase reactions were initiated by adding ATP, followed by incubation for 60 min at room temperature in a total volume of 50 μL. The reactions were terminated by the addition of 10% trichloroacetic acid (final concentration). The [γ-33P]-phosphorylated proteins were filtered in a Harvest Plate (Merck Millipore) with a Cell Harvester (PerkinElmer) and then free [γ-33P] ATP was washed out with 3% phosphoric acid. The plates were dried, followed by the addition of 40 μl of MicroScintO (PerkinElmer). The radioactivity was counted by a TopCount scintillation counter (PerkinElmer). The signals of the reaction without enzyme were defined as 100% inhibitory activity and those of the reaction without inhibitors as 0% inhibitory activity. In vitro CaMKIIδ inhibitory activity was evaluated by % inhibitory activity of 3 μM compound concentration.

SMILES strings stand for the structures. Structures can show the parent of a compound that is named as a salt.

Regarding `COc1cc(C2CCNCC2)ccc1Nc1ncc(-c2ccc(C#N)c(O[C@@H](C)Cn3cncn3)c2)cn1` [Example 50, 4-(2-((2-methoxy-4-(piperidin-4-yl)phenyl)amino)pyrimidin-5-yl)-2-(((2S)-1-(1H-1,2,4-triazol-1-yl)propan-2-yl)oxy)benzonitrile], the inhibition at 3 µM stood at 99%.
`C[C@@H](Cn1cnnn1)Oc1cc(-c2cnc(Nc3cn(C)nc3C(F)(F)F)nc2)ccc1C#N` [Example 380, 4-(2-((1-methyl-3-(trifluoromethyl)-1H-pyrazol-4-yl)amino)pyrimidin-5-yl)-2-(((2S)-1-(1H-tetrazol-1-yl)propan-2-yl)oxy)benzonitrile]: the inhibition at 3 µM amounted to 99%.
In the case of `COc1cc(C(=O)N2CC3(CN(C)C3)C2)ccc1Nc1ncc(-c2ccc(C#N)c(O[C@@H](C)Cn3cncn3)c2)cn1` [Example 147, 4-(2-((2-methoxy-4-((6-methyl-2,6-diazaspiro[3.3]hept-2-yl)carbonyl)phenyl)ami-no)pyrimidin-5-yl)-2-(((2S)-1-(1H-1,2,4-triazol-1-yl)propan-2-yl)oxy)benzonitrile] it was 95%; in that of `COc1cc(N2CCC(N3CCOCC3)CC2)ccc1Nc1ncc(-c2ccc(C#N)c(O[C@@H](C)Cn3ccnc3)c2)cn1` [Example 39, 2-(((2S)-1-(1H-imidazol-1-yl)propan-2-yl)oxy)-4-(2-((2-methoxy-4-(4-(morpholin-4-yl)piperidin-1-yl)phenyl)amino)pyrimidin-5-yl)benzonitrile], 98%; in that of `Cn1cc(Nc2ncc(-c3ccc(C#N)c(O[C@@H](CO)Cn4cccn4)c3)cn2)cn1` [Example 402, 2-(((2R)-1-hydroxy-3-(1H-pyrazol-1-yl)propan-2-yl)oxy)-4-(2-((1-methyl-1H-pyrazol-4-yl)amino)pyrimidin-5-yl)benzonitrile], 82%.
Take `COc1nn(C)cc1Nc1ncc(-c2ccc(C#N)c(O[C@@H](C)Cn3cncn3)c2)cn1` [Example 375, 4-(2-((3-methoxy-1-methyl-1H-pyrazol-4-yl)amino)pyrimidin-5-yl)-2-(((2S)-1-(1H-1,2,4-triazol-1-yl)propan-2-yl)oxy)benzonitrile]: the inhibition at 3 µM amounted to 97%.
In the case of `COc1cc(N2CCC(N3CCNCC3)CC2)ccc1Nc1ncc(-c2ccc(C#N)c(O[C@@H](C)Cn3cnnn3)c2)cn1` [Example 34] it was 99%; in that of `COc1cc(N2CCC(N3CCOCC3)CC2)ccc1Nc1ncc(-c2ccc(C#N)c(O[C@@H](C)Cn3cnnc3)c2)cn1` [Example 17, 4-(2-((2-methoxy-4-(4-(morpholin-4-yl)piperidin-1-yl)phenyl)amino)pyrimidin-5-yl)-2-(((2S)-1-(4H-1,2,4-triazol-4-yl)propan-2-yl)oxy)benzonitrile], 98%.
As to `C[C@@H](Cn1cncn1)Oc1cc(-c2cnc(Nc3cn(C)nc3C(F)(F)F)nc2)ccc1C#N` [Example 376, 4-(2-((1-methyl-3-(trifluoromethyl)-1H-pyrazol-4-yl)amino)pyrimidin-5-yl)-2-(((2S)-1-(1H-1,2,4-triazol-1-yl)propan-2-yl)oxy)benzonitrile], the inhibition at 3 µM came out at 97%.
Then `COc1ccc(N2CCC(N3CCOCC3)CC2)cc1Nc1ncc(-c2ccc(C#N)c(O[C@@H](C)Cn3cnnn3)c2)cn1` [Example 202, 4-(2-((2-methoxy-5-(4-(morpholin-4-yl)piperidin-1-yl)phenyl)amino)pyrimidin-5-yl)-2-(((2S)-1-(1H-tetrazol-1-yl)propan-2-yl)oxy)benzonitrile], with 99%; and `COc1cc(C(=O)N2CCN(C)CC2)ccc1Nc1ncc(-c2ccc(C#N)c(O[C@@H](C)Cn3cncn3)c2)cn1` [Example 73, 4-(2-((2-methoxy-4-((4-methylpiperazin-1-yl)car-bonyl)phenyl)amino)pyrimidin-5-yl)-2-(((2S)-1-(1H-1,2,4-triazol-1-yl)propan-2-yl)oxy)benzonitrile], with 97%; and `COc1cc(CNC2CC2)ccc1Nc1ncc(-c2ccc(C#N)c(O[C@@H](C)Cn3cncn3)c2)cn1` [Example 33, 4-(2-((4-((cyclopropylami-no)methyl)-2-methoxy-phenyl)amino)pyrimidin-5-yl)-2-(((2S)-1-(1H-1,2,4-triazol-1-yl)propan-2-yl)oxy)benzonitrile dihydrochloride], with 98%.
In the case of `COc1cc(C2CCN(CCO)CC2)ccc1Nc1ncc(-c2ccc(C#N)c(O[C@@H](C)Cn3cnnn3)c2)cn1` [Example 160, 4-(2-((4-(1-(2-hydroxyethyl)piperidin-4-yl)-2-methoxy-phenyl)amino)pyrimidin-5-yl)-2-(((2S)-1-(1H-tetrazol-1-yl)propan-2-yl)oxy)benzonitrile] it was 99%; in that of `COc1cc(N2CCC(N3CCOCC3)CC2)c(F)cc1Nc1ncc(-c2ccc(Cl)c(O[C@@H](C)Cn3cnnn3)c2)cn1` [Example 205, 5-(4-chloro-3-(((2S)-1-(1H-tetrazol-1-yl)propan-2-yl)oxy)phenyl)-N-(5-fluoro-2-methoxy-4-(4-(morpholin-4-yl)piperidin-1-yl)phenyl)pyrimidin-2-amine], 99%.
Regarding `COc1cc(N2CCC(N3CCCCC3)CC2)ccc1Nc1ncc(-c2ccc(C#N)c(O[C@@H](C)Cn3cnnn3)c2)cn1` [Example 45, 4-(2-((4-(1,4′-bipiperidine-1′-yl)-2-methoxyphenyl)amino)pyrimidin-5-yl)-2-(((2S)-1-(1H-tetrazol-1-yl)propan-2-yl)oxy)benzonitrile], the inhibition at 3 µM turned out to be 99%.
In the case of `C[C@@H](Cn1cncn1)Oc1cc(-c2cnc(Nc3cnn(C4CC4)c3)nc2)ccc1C#N` [Example 361, 4-(2-((1-cyclopropyl-1H-pyrazol-4-yl)amino)pyrimidin-5-yl)-2-(((2S)-1-(1H-1,2,4-triazol-1-yl)propan-2-yl)oxy)benzonitrile] it was 98%; in that of `COc1cc(N2CCN(C3COC3)CC2)ccc1Nc1ncc(-c2ccc(C#N)c(O[C@@H](C)Cn3cnnn3)c2)cn1` [Example 192, 4-(2-((2-methoxy-4-(4-(oxetan-3-yl)piperazin-1-yl)phenyl)ami-no)pyrimidin-5-yl)-2-(((2S)-1-(1H-tetrazol-1-yl)propan-2-yl)oxy)benzonitrile], 99%; in that of `COc1ccccc1Nc1ncc(-c2ccc(C#N)c(O[C@@H](C)Cn3cncn3)c2)cn1` [Example 2, 4-(2-((2-methoxy-phenyl)amino)pyrimidin-5-yl)-2-(((2S)-1-(1H-1,2,4-triazol-1-yl)propan-2-yl)oxy)benzonitrile], 96%.
`C[C@@H](Cn1cncn1)Oc1cc(-c2cnc(Nc3cnn(C(C)(C)C)c3)nc2)ccc1C#N` [Example 373, 4-(2-((1-tert-butyl-1H-pyrazol-4-yl)amino)pyrimidin-5-yl)-2-(((2S)-1-(1H-1,2,4-triazol-1-yl)propan-2-yl)oxy)benzonitrile]: the inhibition at 3 µM was 98%.
In the case of `COc1ccc(N2CCC(N3CCOCC3)CC2)cc1Nc1ncc(-c2ccc(Cl)c(O[C@@H](C)Cn3cnnn3)c2)cn1` [Example 214, 5-(4-chloro-3-(((2S)-1-(1H-tetrazol-1-yl)propan-2-yl)oxy)phenyl)-N-(2-methoxy-5-(4-(morpholin-4-yl)piperidin-1-yl)phenyl)pyrimidin-2-amine] it was 100%.
